# ChEMBL document CHEMBL1157457, “Alstilobanines A-E, new indole alkaloids from Alstonia angustiloba” (2008)
# Tested on: Aorta
# Test: Vasorelaxation activity against phenylephrine-stimulated contraction in Wistar rat thoracic aorta at 30 uM
# Format: functional
# Design: scale not given: the % may be the effect or the level left
row,SMILES,Activity
1,O=C(O)[C@@]12COCC=C3CN(CC[C@@H]31)Cc1c2[nH]c2ccccc12 [ALSTONAMIC ACID],35%
2,"COC(=O)[C@@]1(c2cc3ccccc3[nH]2)COCC=C2CN(C)CC[C@@H]21 [6,7-SECO-ANGUSTILOBINE B]",7%
3,COC(=O)[C@@]12COCC[C@@H]3[C@@H](NCC[C@@H]31)c1c2[nH]c2ccccc12 [ALSTILOBANINE C],28%
4,COC(=O)[C@]12COCC[C@@H]3[C@H](c4c1[nH]c1ccccc41)N(C)CC[C@@H]32 [UNDULIFOLINE],33.3%
5,COC(=O)[C@@]1(c2cc3ccccc3[nH]2)COCC=C2C[N@+](C)([O-])CC[C@@H]21 [ALSTILOBANINE D],10%
6,COC(=O)[C@@]12COCC[C@H]3[C@@H]1CC[N@@+](C)([O-])[C@H]3c1c2[nH]c2ccccc12 [ALSTILOBANINE B],21.2%
7,COC(=O)[C@]1(CO)c2[nH]c3ccccc3c2[C@@H](C)[C@]2(O)CNCC[C@@H]21 [ALSTILOBANINE A],44.3%
8,COC(=O)[C@@]12COC[C@H](c3c1[nH]c1ccccc31)[C@]1(O)CNCC[C@@H]12 [ALSTILOBANINE E],6.8%
